ChEMBL document CHEMBL5505952, “Targeting SARS-CoV-2 entry processes: The promising potential and future of host-targeted small-molecule inhibitors” (Eur J Med Chem, 2024)

System: SARS-CoV-2
Format: functional, organism-based
Details: Severe acute respiratory syndrome coronavirus 2, Vero C1008

Compound: CC(CN(C)C)CN1c2ccccc2Sc2ccccc21 (stereo unspecified) [METHYLPROMAZINE]
- EC50: 2420 nM
